Data published in patent publication US20230021483A1, “[…] […] METHOD AND CLASSIFICATION OF PHARMACEUTICAL COMPONENTS BY USING TRANSCRIPTOMES” (National Institutes of Biomedical Innovation, Health and …, priority 2016, published 2023).

Experiments:
[1] = system: preferentially upregulated genes in LV, SP, LN; assay: Z-score-based differential gene expression analysis (adjuvant group- or adjuvant-associated genes, 40 module mapping, TargetMine annotation); assay type: in vivo, C57BL/6 mice; details: for Rsad2 1436058_at (Group G1, Modules 20) / Shisa5 1423986_a_at (Group G1, Modules 20) / Shisa5 1437503_a_at (Group G1, Modules 20) / Stat1 1450033_a_at (Group G1, Modules 20) / Stat1 1450034_at (Group G1, Modules 20) / Tdrd7 1426716_at (Group G1, Modules 20) / Tor1aip2 1418115_s_at (Group G1, Modules 20) / Tor1aip2 1418116_at (Group G1, Modules 20) / Tor1aip2 1435526_at (Group G1, Modules 20) / Trim12a 1437432_a_at (Group G1, Modules 20) / Uba7 1426970_a_at (Group G1, Modules 20) / Adar 1425405_a_at (Group G1, Modules 20) / Adar 1434268_at (Group G1, Modules 20) / Ddx58 1436562_at (Group G1, Modules 20) / Ddx58 1456890_at (Group G1, Modules 20) / Eif2ak2 1422005_at (Group G1, Modules 20) / G3bp2 1421323_a_at (Group G1, Modules 20) / Gm9706///Isg15 1431591_s_at (Group G1, Modules 20) / H2-T10///H2-T22///H2-T9 1449875_s_at (Group G1, Modules 20) / Ifih1 1426276_at (Group G1, Modules 20) / Ifit1 1450783_at (Group G1, Modules 20) / Ifit3 1449025_at (Group G1, Modules 20) / Irf7 1417244_a_at (Group G1, Modules 20) / Irgm1 1418825_at (Group G1, Modules 20) / Mndal 1426906_at (Group G1, Modules 20) / Pml 1448757_at (Group G1, Modules 20) / Pml 1456103_at (Group G1, Modules 20) / Rnf213 1455500_at (Group G1, Modules 20): ID, LV
Method in brief: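 Per-sample fold-change values converted to gene-wise z-scores within each organ's data set, then triplicate z-scores summed per adjuvant. Genes with summed score >3 taken as preferentially expressed; gene groups defined by combined per-adjuvant z-score thresholds (z>1 to z>3) specific to each organ.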

[2] = literature reports; cited from earlier work

SMILES: Cc1ccc2c(=O)c3cccc(CC(=O)O)c3oc2c1C [DMXAA, 5,6-dimethylxanthenone-4-acetic acid]
- Rsad2 1436058_at (Group G1, Modules 20) ([1]; sample x1): 1.56
- Shisa5 1423986_a_at (Group G1, Modules 20) ([1]; sample x1): 2.03
- Shisa5 1437503_a_at (Group G1, Modules 20) ([1]; sample x1): 2.12
- Stat1 1450033_a_at (Group G1, Modules 20) ([1]; sample x1): 1.5
- Stat1 1450034_at (Group G1, Modules 20) ([1]; sample x1): 1.53
- Tdrd7 1426716_at (Group G1, Modules 20) ([1]; sample x1): 1.6
- Tor1aip2 1418115_s_at (Group G1, Modules 20) ([1]; sample x1): 2.45
- Tor1aip2 1418116_at (Group G1, Modules 20) ([1]; sample x1): 2.19
- Tor1aip2 1435526_at (Group G1, Modules 20) ([1]; sample x1): 2.23
- Trim12a 1437432_a_at (Group G1, Modules 20) ([1]; sample x1): 1.82
- Uba7 1426970_a_at (Group G1, Modules 20) ([1]; sample x1): 1.81
- Adar 1425405_a_at (Group G1, Modules 20) ([1]; sample x2): 1.5
- Adar 1434268_at (Group G1, Modules 20) ([1]; sample x2): 1.52
- Ddx58 1436562_at (Group G1, Modules 20) ([1]; sample x2): 1.54
- Ddx58 1456890_at (Group G1, Modules 20) ([1]; sample x2): 1.93
- Eif2ak2 1422005_at (Group G1, Modules 20) ([1]; sample x2): 1.3
- G3bp2 1421323_a_at (Group G1, Modules 20) ([1]; sample x2): 1.22
- Gm9706///Isg15 1431591_s_at (Group G1, Modules 20) ([1]; sample x2): 1.39
- H2-T10///H2-T22///H2-T9 1449875_s_at (Group G1, Modules 20) ([1]; sample x2): 1.64
- Ifih1 1426276_at (Group G1, Modules 20) ([1]; sample x2): 1.09
- Ifit1 1450783_at (Group G1, Modules 20) ([1]; sample x2): 1.54
- Ifit3 1449025_at (Group G1, Modules 20) ([1]; sample x2): 1.3
- Irf7 1417244_a_at (Group G1, Modules 20) ([1]; sample x2): 1.18
- Irgm1 1418825_at (Group G1, Modules 20) ([1]; sample x2): 1.33
- Mndal 1426906_at (Group G1, Modules 20) ([1]; sample x2): 1.19
- Pml 1448757_at (Group G1, Modules 20) ([1]; sample x2): 1.35
- Pml 1456103_at (Group G1, Modules 20) ([1]; sample x2): 1.34
- Rnf213 1455500_at (Group G1, Modules 20) ([1]; sample x2): 1.2
- Rsad2 1436058_at (Group G1, Modules 20) ([1]; sample x2): 1.25
- Shisa5 1423986_a_at (Group G1, Modules 20) ([1]; sample x2): 1.81
- Shisa5 1437503_a_at (Group G1, Modules 20) ([1]; sample x2): 1.62
- Stat1 1450033_a_at (Group G1, Modules 20) ([1]; sample x2): 1.73
- Stat1 1450034_at (Group G1, Modules 20) ([1]; sample x2): 1.96
- Tdrd7 1426716_at (Group G1, Modules 20) ([1]; sample x2): 1.74
- Tor1aip2 1418115_s_at (Group G1, Modules 20) ([1]; sample x2): 1.52
- Tor1aip2 1418116_at (Group G1, Modules 20) ([1]; sample x2): 1.92
- Tor1aip2 1435526_at (Group G1, Modules 20) ([1]; sample x2): 1.48
- Trim12a 1437432_a_at (Group G1, Modules 20) ([1]; sample x2): 1.56
- Uba7 1426970_a_at (Group G1, Modules 20) ([1]; sample x2): 1.59
- Adar 1425405_a_at (Group G1, Modules 20) ([1]; sample x3): 0.93
- Adar 1434268_at (Group G1, Modules 20) ([1]; sample x3): 0.92
- Ddx58 1436562_at (Group G1, Modules 20) ([1]; sample x3): 1.31
- Ddx58 1456890_at (Group G1, Modules 20) ([1]; sample x3): 1.56
- Eif2ak2 1422005_at (Group G1, Modules 20) ([1]; sample x3): 0.68
- G3bp2 1421323_a_at (Group G1, Modules 20) ([1]; sample x3): 0.71
- Gm9706///Isg15 1431591_s_at (Group G1, Modules 20) ([1]; sample x3): 0.8
- H2-T10///H2-T22///H2-T9 1449875_s_at (Group G1, Modules 20) ([1]; sample x3): 0.51
- Ifih1 1426276_at (Group G1, Modules 20) ([1]; sample x3): 0.78
- Ifit1 1450783_at (Group G1, Modules 20) ([1]; sample x3): 1.04
- Ifit3 1449025_at (Group G1, Modules 20) ([1]; sample x3): 0.74
- Irf7 1417244_a_at (Group G1, Modules 20) ([1]; sample x3): 1
- Irgm1 1418825_at (Group G1, Modules 20) ([1]; sample x3): 0.79
- Mndal 1426906_at (Group G1, Modules 20) ([1]; sample x3): 0.73
- Pml 1448757_at (Group G1, Modules 20) ([1]; sample x3): 0.83
- Pml 1456103_at (Group G1, Modules 20) ([1]; sample x3): 0.34
- Rnf213 1455500_at (Group G1, Modules 20) ([1]; sample x3): 0.97
- Rsad2 1436058_at (Group G1, Modules 20) ([1]; sample x3): 0.44
- Shisa5 1423986_a_at (Group G1, Modules 20) ([1]; sample x3): 1.42
- Shisa5 1437503_a_at (Group G1, Modules 20) ([1]; sample x3): 1.72
- Stat1 1450033_a_at (Group G1, Modules 20) ([1]; sample x3): 1.15
- Stat1 1450034_at (Group G1, Modules 20) ([1]; sample x3): 1.16
- Tdrd7 1426716_at (Group G1, Modules 20) ([1]; sample x3): 1.09
- Tor1aip2 1418115_s_at (Group G1, Modules 20) ([1]; sample x3): 0.98
- Tor1aip2 1418116_at (Group G1, Modules 20) ([1]; sample x3): 1.37
- Tor1aip2 1435526_at (Group G1, Modules 20) ([1]; sample x3): 1.01
- Trim12a 1437432_a_at (Group G1, Modules 20) ([1]; sample x3): 1.11
- Uba7 1426970_a_at (Group G1, Modules 20) ([1]; sample x3): 1.21
- preferentially induced biological process relative to adjuvants targeting the same receptor ([1]; LN, z-scores and 40 module mapping): preferentially induced RNA processing and gene expression responses more than cdiGMP or cGAMP
- adjuvant group-associated biological features ([1]; z-score selected genes, TargetMine and IPA upstream cytokine analyses): strongly associated with type I and type II interferon responses
- Th response induced [2]: induces Th2 responses
